Data set [1] concerns brain level of γ-aminobutyric acid. The note with it: in animals; cited from earlier work.
In data set [2] the test system is γ-aminobutyric acid transaminase. The note with it: cited from earlier work.
For data set [3], the system named is C. elegans. The experiment in a line: C. elegans assay. As to conditions: Caenorhabditis elegans, read-out: % Active. Here is the method:
The compounds tested were dissolved in DMSO at 10 mg/ml to give sample stock solutions. During assay, 1 ml M9 buffer (6 g Na2 HPO4, 3 g KH2 PO4, 5 g NaCl, and 0.25 g MgSO4 H2 O per liter) was placed in each of the 24-wells in a tissue culture plate. 10 μl of sample stock solution was added respectively to each of 23 wells. The remaining well served as drug-free control.
At time 0, 1 drop of C. elegans suspension was dropped into each well (25-50 adults). At 1 hour, the number of active worms versus total in each well was recorded.

Data set [4] relates to N. Brasiliensis. The data set is described as follows: N. Brasiliensis assay, third larval stage. As to conditions: 50 μg/ml, 37° C., control 100%, read-out: Percent Viable. How it is done: The compound was tested at 50 μg/ml against the third larval stage of N. Brasiliensis at approximately 50 L3 /well; this mixture was incubated at 37° C. for total of 7 days. Activity of the compound was checked on days 1, 4. and 7 post-inoculation.

Data set [5] is described as follows: Toxicity test (acute, oral, mouse). It is filed as in vivo. The note with it: mouse, in vivo, po; male mice, CMC vehicle, observed for 21 days. How it is done: (§1) 4-amino-5,6-heptadienoic acid prepared in CMC vehicle was administered once daily to groups of 6 male mice at doses of 0, 62.5, 125, 250 and 500 mg/Kg. […] Therefore, the LD50 (acute, oral, mouse) for 4-amino-5,6-heptadienoic acid is greater than 500 mg/Kg.

In data set [6] the test system is mouse. The data set is described as follows: Toxicity test (acute, oral, mouse). It is filed as in vivo. The note with it: male mice, once daily, 62.5, 125, 250 and 500 mg/Kg, observed for 21 days. Here is the method: as §1

Structures can show the parent of a compound that is named as a salt. Where two headings read alike, the source gives them in different places.

Data on 6 compounds can be found in patent publication US4668703A, “γ-allenyl-γ-aminobutyric acids” (Syntex (U.S.A.) Inc., priority 1985, dated 1987).

Regarding `NC(CF)CCC(=O)O` (stereo not shown) [γ-monofluoromethyl-γ-aminobutyric acid], in data set [1], the “increase of the brain level of γ-aminobutyric acid” value (shortened to “increase”) was “significantly increase”. Besides, the “irreversible inhibitors of γ-aminobutyric acid transaminase” value (from here on “irreversible inhibitors”) in data set [2] is recorded as “potent irreversible inhibitors”.

In the case of `C=C=C(C)C(N)CCC(=O)OCCCCCCCC` (stereo not shown) [Octyl 4-amino-5-methyl-5,6-heptanoate, octyl-4-amino-5-methyl-5,6-heptadienoate para-toluene-sulfonic acid salt], in data set [3] (1 h), the activity at 100 µg/mL was found to be 25%.

In the case of `C=C=CC(N)CCC(=O)OCCCCCCCC` (stereo not shown) [Octyl 4-amino-5,6-heptadienoate para-toluene sulfonic acid salt], the viability at 50 µg/mL came to 64% in data set [4] (24 h, day 1); 0% in data set [4] (96 h, day 4); 0% in data set [4] (168 h, day 7). Also, the activity at 100 µg/mL in data set [3] (active worms versus total at 1 hour, 10 μl of 10 mg/ml DMSO stock added to 1 ml M9 buffer, control 100%) is 45%.

As to `C=CC(N)CCC(=O)O` (stereo not shown) [γ-vinyl-γ-aminobutyric acid], in data set [1], the “increase” value was “significantly increase”. Also, the “irreversible inhibitors” value in data set [2] is on record as “potent irreversible inhibitors”.

`C#CC(N)CCC(=O)O` (stereo not shown) [γ-acetylenic]: the “increase” value in data set [1] is reported as “significantly increase”. Besides, in data set [2], the “irreversible inhibitors” value is on record as “potent irreversible inhibitors”.

As usually defined, the LD50 is the dose expected to kill half of the subjects tested. Higher therefore signals lower toxicity. The compound `C=C=CC(N)CCC(=O)O` (stereo not shown) [4-amino-5,6-heptadienoic acid] showed an LD50 at 504 h in data set [5] above 500 mg/kg. For the same compound, in data set [6], the deaths result was “no deaths”.
